Assays:
GSK3β = GSK3β (Homo sapiens, UniProt P49841); assay: Inhibitory activity against GSK3β (33P-ATP phosphorylation of prephosphorylated GS1 peptide, four protocols); format: biochemical
Method: Test Example:Inhibitory Activity of the Medicament of the Present Invention Against GSK3β Four different protocols can be used. In a first protocol: 7.5 μM of prephosphorylated GS1 peptide and 10 μM ATP (containing 300,000 cpm of ^33P-ATP) were incubated in 25 mM Tris-HCl, pH 7.5, 0.6 mM DTT, 6 mM MgCl2, 0.6 mM EGTA, 0.05 mg/ml BSA buffer for 1 hour at room temperature in the presence of GSK3beta (total reaction volume: 100 microliters). In a second protocol: 4.1 μM of prephosphorylated GS1 peptide and 42 μM ATP (containing 260,000 cpm ^33P-ATP) were incubated in 80 mM Mes-NaOH, pH 6.5, 1 mM Mg acetate, 0.5 mM EGTA, 5 mM 2-mercaptoethanol, 0.02% Tween 20, 10% glycerol buffer for 2 hours at room temperature in the presence of GSK3beta. In a third protocol: 7.5 μM of prephosphorylated GS1 peptide and 10 μM ATP (containing 300,000 cpm of ^33P-ATP) were incubated in 50 mM Hepes, pH 7.2, 1 mM DTT, 1 mM MgCl2, 1 mM EGTA, 0.01% Tween 20 buffer for one hour at room temperature in the presence of GSK3beta (total reaction volume: 100 microliters). […] Incorporated ^33P radioactivity was determined by liquid scintillation spectrometry. […]

Chain of GSK3β (P49841 whole entry): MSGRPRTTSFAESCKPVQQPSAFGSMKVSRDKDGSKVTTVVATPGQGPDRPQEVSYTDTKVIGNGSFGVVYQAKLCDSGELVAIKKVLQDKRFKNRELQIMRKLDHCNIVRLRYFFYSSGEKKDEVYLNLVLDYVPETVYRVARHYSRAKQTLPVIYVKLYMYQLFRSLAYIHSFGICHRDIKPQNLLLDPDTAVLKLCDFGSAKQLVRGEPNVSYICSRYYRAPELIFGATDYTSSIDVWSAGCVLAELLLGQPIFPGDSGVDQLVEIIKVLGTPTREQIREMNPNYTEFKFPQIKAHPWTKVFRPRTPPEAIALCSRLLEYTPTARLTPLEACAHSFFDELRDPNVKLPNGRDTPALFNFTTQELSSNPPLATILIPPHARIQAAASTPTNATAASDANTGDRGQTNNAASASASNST

IC50 (GSK3β; protocol 4 (commercial GSK3beta, Millipore; 10 μM ATP; 90 minutes)) | melting point | inhibition of GSK3β (GSK3β; at 1 μM) | Compound
8 nM | 130 to 132 °C |  | O=c1cc(-c2ccncn2)nc2n1CCCCC2C1CC1 (racemic) [Compound No 20 of table 2, (+/−)-10-Cyclopropyl-2-pyrimidin-4-yl-7,8,9,10-tetrahydro-6H-pyrimido[1,2-α]azepin-4-one]
 |  | 63% | (+/−)-9-Ethyl-4-oxo-2-pyrimidin-4-yl-5,6,8,9-tetrahydro-4H-1,4-a,7-triaza-benzocycloheptene-7-carboxylic acid ethyl ester [Compound No 1 of table 3]
